In article PMC9016125 (The Journal of Antibiotics, 2022):

Target: T1, sortase A (SrtA) (Staphylococcus aureus, UniProt Q2FV99)
T1 sequence (Q2FV99 1-206): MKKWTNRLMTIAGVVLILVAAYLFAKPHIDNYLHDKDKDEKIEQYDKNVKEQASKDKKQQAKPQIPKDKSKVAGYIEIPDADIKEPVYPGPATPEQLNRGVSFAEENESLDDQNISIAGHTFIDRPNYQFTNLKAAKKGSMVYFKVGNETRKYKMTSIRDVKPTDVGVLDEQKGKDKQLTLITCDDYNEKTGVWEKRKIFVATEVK
Experiment: microscale thermophoresis with labeled purified SrtA
Type: binding

- Kd: 189 µM
Compound: Nc1c(Cl)cccc1C(=O)Nc1ccccc1C(=O)O [compound 5, 2-(2-amino-3-chloro-benzoylamino)-benzoic acid]
